Assay results taken from ChEMBL document CHEMBL4251561, “1,4-Naphthoquinones potently inhibiting P2X7 receptor activity” (Eur J Med Chem, 2018).
In brackets after ≈: the same amount, converted by molar mass. Activity calls are given as the source filed them. The calls are words filed in the database; no cut-off is given here.

Assays:
Peritoneal macrophage [1] = assay: Cytotoxicity against Swiss Webster mouse peritoneal macrophages at 100 uM after 72 hrs by resazurin reduction assay; assay type: cell-based
[2] = molecular target: T1, P2X purinoceptor 7 (Mus musculus) (UniProt Q9Z1M0); assay: (§1) Antagonist activity at P2X7R in Swiss Webster mouse peritoneal macrophages assessed as inhibition of ATP-induced propidium iodide uptake preincubated for 10 mins followed by ATP induction measured after 25 mins by fluorescence assay
T1 sequence (whole entry): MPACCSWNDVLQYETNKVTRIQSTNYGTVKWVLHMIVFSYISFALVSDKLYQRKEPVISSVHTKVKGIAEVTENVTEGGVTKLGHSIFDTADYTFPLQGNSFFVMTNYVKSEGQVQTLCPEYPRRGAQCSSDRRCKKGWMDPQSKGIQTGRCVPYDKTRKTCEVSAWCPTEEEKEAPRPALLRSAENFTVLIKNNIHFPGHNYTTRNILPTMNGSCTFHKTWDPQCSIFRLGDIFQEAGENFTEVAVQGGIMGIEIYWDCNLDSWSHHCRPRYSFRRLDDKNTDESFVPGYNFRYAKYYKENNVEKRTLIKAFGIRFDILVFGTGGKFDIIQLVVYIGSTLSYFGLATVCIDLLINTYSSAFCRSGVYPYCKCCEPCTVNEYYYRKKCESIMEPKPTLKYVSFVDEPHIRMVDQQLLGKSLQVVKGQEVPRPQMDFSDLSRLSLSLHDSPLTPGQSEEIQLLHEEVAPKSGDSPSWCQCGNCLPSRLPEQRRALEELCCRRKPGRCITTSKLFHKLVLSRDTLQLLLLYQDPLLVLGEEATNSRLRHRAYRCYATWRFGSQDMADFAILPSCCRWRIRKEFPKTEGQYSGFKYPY

P2X purinoceptor 7 [3] = molecular target: T2, P2X purinoceptor 7 (Mus musculus, UniProt Q9Z1M0); assay: as §1
T2 sequence (Q9Z1M0 whole entry): T1 sequence (whole entry)

[4] = Cytotoxicity against Swiss Webster mouse peritoneal macrophages by LDH release assay; assay type: cell-based, Peritoneal macrophage
P2X7R = assay: Selectivity index, ratio of CC50 for Swiss Webster mouse peritoneal macrophages to IC50 for antagonist activity at P2X7R in Swiss Webster mouse peritoneal macrophages; assay type: toxicity; details: read-out: Ratio CC50/IC50
THP-1 = assay: Antiinflammatory activity in LPS/IFNgamma-differentiated human THP1 cells assessed as inhibition of ATP-induced IL-1beta release after 30 mins by ELISA; assay type: functional, cell-based; details: THP-1, 0.5 h
Peritoneal macrophage [5] = assay: Antiinflammatory activity in LPS/IFNgamma-differentiated Swiss Webster mouse peritoneal macrophages assessed as inhibition of ATP-induced IL-1beta release preincubated for 15 mins followed by ATP/LPS challenge measured after 30 mins by sandwich ELISA; assay type: functional, cell-based
P2X purinoceptor 7 [6] = molecular target: T3, P2X purinoceptor 7 (Homo sapiens, UniProt Q99572); assay: Antagonist activity at human P2X7R expressed in HEK293 cells assessed as inhibition of ATP-induced […] uptake preincubated for 10 mins followed by ATP induction measured after 25 mins by fluorescence assay; assay type: cell-based
T3 sequence (Q99572 whole entry): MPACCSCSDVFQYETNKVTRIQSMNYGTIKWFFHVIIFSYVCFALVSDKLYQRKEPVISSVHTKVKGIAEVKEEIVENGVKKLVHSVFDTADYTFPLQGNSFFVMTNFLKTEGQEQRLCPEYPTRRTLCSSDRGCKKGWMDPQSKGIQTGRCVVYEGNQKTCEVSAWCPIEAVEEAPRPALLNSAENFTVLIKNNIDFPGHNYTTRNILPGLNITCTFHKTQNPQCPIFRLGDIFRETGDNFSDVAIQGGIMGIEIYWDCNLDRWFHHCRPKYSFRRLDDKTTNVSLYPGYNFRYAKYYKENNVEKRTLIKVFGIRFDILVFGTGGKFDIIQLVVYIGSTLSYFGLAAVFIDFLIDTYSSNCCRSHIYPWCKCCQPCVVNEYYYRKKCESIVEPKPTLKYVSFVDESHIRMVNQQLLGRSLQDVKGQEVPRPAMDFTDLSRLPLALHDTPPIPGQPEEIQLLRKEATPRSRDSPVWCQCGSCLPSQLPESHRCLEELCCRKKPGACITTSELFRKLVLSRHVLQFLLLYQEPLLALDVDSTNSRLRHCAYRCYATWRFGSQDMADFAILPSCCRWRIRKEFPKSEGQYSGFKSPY

[7] = Safety index, ratio of test compound CC50 to BGG CC50 for Swiss Webster mouse peritoneal macrophages by LDH release assay; assay type: ADME, cell-based, Peritoneal macrophage
[8] = Safety index, ratio of test compound CC50 to A740003 CC50 for Swiss Webster mouse peritoneal macrophages by LDH release assay; assay type: ADME, cell-based, Peritoneal macrophage
[9] = Intrinsic clearance in mouse liver microsomes assessed per mg of protein at 1 uM preincubated for 45 mins followed by NADPH addition; assay type: ADME, microsome; details: read-out: CLH
[10] = Intrinsic clearance in human liver microsomes assessed per mg of protein at 1 uM preincubated for 45 mins followed by NADPH addition; assay type: ADME, microsome; details: read-out: CLH
[11] = Apparent permeability across apical to basolateral side in human Caco2 cells at 100 uM after 60 mins by lucifer yellow fluorescence-based assay; assay type: ADME, cell-based; details: Caco-2
[12] = Kinetic solubility in pH 2 hydrochloride buffer; assay type: physicochemical; details: read-out: Kinetic_solubility
[13] = Kinetic solubility in pH 4 citrate buffer; assay type: physicochemical; details: read-out: Kinetic_solubility
[14] = Kinetic solubility in pH 7.4 phosphate buffer; assay type: physicochemical; details: read-out: Kinetic_solubility
[15] = Kinetic solubility in pH 10 sodium hydroxide buffer; assay type: physicochemical; details: read-out: Kinetic_solubility
[16] = Octanol-PBS distribution co-efficient, log D of the compound at 25 mM at pH 7.4 after 2 hrs by shake flask method; assay type: physicochemical
[17] = molecular target: T1, P2X purinoceptor 7 (Mus musculus); assay: Antagonist activity at P2X7R in Swiss Webster mouse peritoneal macrophages assessed as inhibition of ionic current amplitude at 500 nM incubated for 300 secs in presence of ATP by patch clamp method
[18] = Apparent permeability across apical to basolateral side in human Caco2 cells at 100 uM after 60 mins by lucifer yellow fluorescence-based assay relative to propranolol; assay type: ADME, cell-based; details: caco-2, 1 h
Mus musculus [19] = assay: Antiinflammatory activity in ip dosed Swiss Webster mouse assessed as inhibition of carrageenan-induced paw edema preincubated for 30 mins followed by carrageenan challenge measured after 60 mins by plethysmometer; assay type: functional, organism-based
Peritoneal macrophage [20] = assay: Antiinflammatory activity in IFNgamma-differentiated Swiss Webster mouse peritoneal macrophages assessed as inhibition of LPS-induced IL-1beta release at 500 nM preincubated for 15 mins followed by LPS challenge measured after 30 mins by sandwich ELISA; assay type: functional, cell-based
Mus musculus [21] = assay: Antiinflammatory activity in Swiss Webster mouse assessed as inhibition of carrageenan-induced paw edema at 10 mg/kg, ip preincubated for 30 mins followed by carrageenan challenge measured after 60 mins by plethysmometer; assay type: functional, organism-based

| SMILES | IC50 (P2X purinoceptor 7 [3]) | IC50 (THP-1) | IC50 (Peritoneal macrophage [5]) | IC50 (P2X purinoceptor 7 [6]) | Activity (Peritoneal macrophage [1]) | CC50 [4] | selectivity ratio (P2X7R) | other results |
| --- | --- | --- | --- | --- | --- | --- | --- | --- |
| COc1ccc(CC(=O)NC(N/C(=N/C#N)Nc2cccc3ncccc23)C(C)(C)C)cc1OC (stereo unspecified) | 0.897 µM | 0.689 µM | 0.723 µM | 0.109 µM |  | 325 µM | 362 | inhibition [17]: Active |
| COc1cccc(C2=C(O)C(=O)c3ccccc3C2=O)c1 | 3.17 µM |  |  |  | Non-Toxic |  |  |  |
| O=C1C(O)=C(Br)C(=O)c2ccccc21 | 0.712 µM | 0.633 µM | 0.677 µM | 0.414 µM | Non-Toxic | 844 µM | 1180 | inhibition [2]: Dose-dependent effect; selectivity ratio [7]: 10 to 20; selectivity ratio [8]: 3 to 6; inhibition (Peritoneal macrophage [20]): inactive |
| O=C(O)Cc1ccccc1Nc1c(Cl)cccc1Cl |  |  |  |  |  |  |  | inhibition (Mus musculus [21]): Active |
| Cc1ccc(C2=C(O)C(=O)c3ccccc3C2=O)cc1 | 81.3 µM |  |  |  | Non-Toxic |  |  |  |
| N#Cc1ccc(C2=C(O)C(=O)c3ccccc3C2=O)cc1 | 45.8 µM |  |  |  | Non-Toxic |  |  |  |
| O=C1C=C(O)C(=O)c2ccccc21 [LAWSONE] | 75.5 µM |  |  |  | Toxic |  |  |  |

The next lines start with results.

| IC50 (P2X purinoceptor 7 [3]) | IC50 (THP-1) | IC50 (Peritoneal macrophage [5]) | IC50 (P2X purinoceptor 7 [6]) | SMILES | Activity (Peritoneal macrophage [1]) | CC50 [4] | selectivity ratio (P2X7R) | other results |
| --- | --- | --- | --- | --- | --- | --- | --- | --- |
| 0.0484 µM | 0.0402 µM | 0.0489 µM | 0.0712 µM | O=C1C(O)=C(I)C(=O)c2ccccc21 | Non-Toxic | 2020 µM | 50600 | inhibition [2]: Dose-dependent effect; selectivity ratio [7]: 10 to 20; selectivity ratio [8]: 3 to 6; microsomal CLint at 1 µM [9]: 24.6 µL/min/mg; microsomal CLint at 1 µM [10]: 31.1 µL/min/mg; Papp A→B at 1 h, 100 µM [11]: 54.2 ×10⁻⁶ cm/s; solubility kinetic [12]: 300 µM (≈ 90 µg/mL); solubility kinetic [13]: 300 µM (≈ 90 µg/mL); solubility kinetic [14]: < 300 µM; solubility kinetic [15]: 300 µM (≈ 90 µg/mL); logD at 2 h, 25000 µM [16]: -0.11; inhibition [17]: Active; Papp [18]: <= 50%; inhibition (Mus musculus [19]): Dose-dependent effect; inhibition (Peritoneal macrophage [20]): inactive |
| 15.2 µM | 19.3 µM | 19.8 µM | 0.536 µM | CCOc1ccc(Nc2ccc(/C(=C3C=C/C(=[N+](/CC)Cc4cccc(S(=O)(=O)[O-])c4)C=C/3C)c3ccc(N(CC)Cc4cccc(S(=O)(=O)O)c4)cc3C)cc2)cc1 [BRILLIANT BLUE G] |  | 87.3 µM | 5.73 |  |
| 33.5 µM |  |  |  | O=C1C(O)=C(c2cccc(F)c2)C(=O)c2ccccc21 | Non-Toxic |  |  |  |
| 80.1 µM |  |  |  | COc1ccc(C2=C(O)C(=O)c3ccccc3C2=O)cc1 | Non-Toxic |  |  |  |
| 0.0231 µM | 0.0098 µM | 0.0112 µM | 0.0224 µM | O=C1C(O)=C(c2ccccc2)C(=O)c2ccccc21 | Non-Toxic | 1990 µM | 86400 | inhibition [2]: Dose-dependent effect; selectivity ratio [7]: 10 to 20; selectivity ratio [8]: 3 to 6; microsomal CLint at 1 µM [9]: 27.7 µL/min/mg; microsomal CLint at 1 µM [10]: 36.8 µL/min/mg; Papp A→B at 1 h, 100 µM [11]: 61.1 ×10⁻⁶ cm/s; solubility kinetic [12]: < 500 µM; solubility kinetic [13]: < 500 µM; solubility kinetic [14]: < 500 µM; solubility kinetic [15]: < 500 µM; logD at 2 h, 25000 µM [16]: -0.39; inhibition [17]: Active; Papp [18]: 60%; inhibition (Mus musculus [19]): Dose-dependent effect; inhibition (Peritoneal macrophage [20]): inactive |
